For one assay, the system named is MRC5. In words: MTS proliferation assay, MRC5. Conditions: MRC5, 72 h incubation; read-out: MTS proliferation assay IC 50 MRC5. Type of assay: cell-based. In outline:
(§1)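 Read-out: MTS absorbance at 492 nm after 3 h reagent incubation. Before that, cells grew 72 h at 37° C/7.5% CO2 with test compounds at final concentrations of 10 μM, 3 μM, 1 μM and 0.3 μM, added 24 h post-seeding.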
For orientation: Tetrazolium dyes change colour on reduction, which living cells bring about.

Another assay concerns HeLa. In words: MTS proliferation assay, HeLa. It counts as cell-based, human. The settings on record: 72 h incubation, read-out: MTS proliferation assay IC 50 HeLa. In outline:
(§2)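 Absorbance at 492 nm after 3 h with MTS reagent gave the proliferation read-out. Before that, cells in RPMI-1640 complete medium (5% or 10% FCS) were treated 72 h with compound at four final concentrations, 0.3 to 10 μM.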

The next assay relates to Jily. Nature of the assay: MTS proliferation assay, Jily. It counts as cell-based. Conditions: 72 h incubation, read-out: MTS proliferation assay IC 50 Jily. In outline:
as §1

In the next assay the test system is HT1080. In words: MTS proliferation assay, HT1080. Type of assay: cell-based, human. The settings on record: HT1080, 72 h incubation; read-out: MTS proliferation assay IC 50 HT1080. In outline:
as §2

The subject of the next assay is Jurkat. Nature of the assay: MTS proliferation assay, Jurkat. It counts as cell-based, human. The settings on record: 72 h incubation, read-out: MTS proliferation assay IC 50 Jurkat. In outline:
as §2

Assay [1] has as its system adherent cells or suspension cells. In words: Hoechst 33342 nuclear staining (fraction of apoptotic nuclei). Type of assay: cell-based. Also on record: key: 0 relating to no activity; 1 relating to weak activity comprising less than 70% of the cells; score 2 relating to strong activity comprising more than 70% of the cells.

SMILES strings stand for the structures.

As to `Nc1nonc1-c1nc2ccccc2n1CC(=O)c1ccc2ccccc2c1` [Example 42], the IC50 with MRC5 is 0.1 to 1 µM; with HeLa it was 0.01 to 0.1 µM; with Jily, 0.01 to 0.1 µM; in the assay on HT1080, 0.01 to 0.1 µM; in the assay on Jurkat, 0.01 to 0.1 µM. In addition, the “Hoechst 33342 nuclear staining score” value in assay [1] (H460, conc 0.01 μm) is given as 0; in assay [1] (H460, conc 0.1 μm), 2 (score 2 relating to strong activity comprising more than 70% of the cells); in assay [1] (H460, conc 1 μm) it was 2 (score 2 relating to strong activity comprising more than 70% of the cells); in assay [1] (HeLa, conc 0.01 μm), 0; in assay [1] (HeLa, conc 0.1 μm) it was 1 (1 relating to weak activity comprising less than 70% of the cells); in assay [1] (HeLa, conc 1 μm), 2 (score 2 relating to strong activity comprising more than 70% of the cells). For the same compound, the “Hoechst 33342 nuclear staining score” value in assay [1] (Jily, conc 0.01 μm) is 0; in assay [1] (Jily, conc 0.1 μm), 2 (score 2 relating to strong activity comprising more than 70% of the cells); in assay [1] (Jily, conc 1 μm) it was 2 (score 2 relating to strong activity comprising more than 70% of the cells); in assay [1] (Jurkat, conc 0.01 μm), 0; in assay [1] (Jurkat, conc 0.1 μm), 2 (score 2 relating to strong activity comprising more than 70% of the cells); in assay [1] (Jurkat, conc 1 μm), 2 (score 2 relating to strong activity comprising more than 70% of the cells). In addition, the “Hoechst 33342 nuclear staining score” value was 0 in assay [1] (MRC5, conc 0.01 μm); 2 (score 2 relating to strong activity comprising more than 70% of the cells) in assay [1] (MRC5, conc 0.1 μm); 2 (score 2 relating to strong activity comprising more than 70% of the cells) in assay [1] (MRC5, conc 1 μm); 0 in assay [1] (PBLs, conc 0.01 μm); 0 in assay [1] (PBLs, conc 0.1 μm); 0 in assay [1] (PBLs, conc 1 μm).
Take `COc1ccc(C(=O)Cn2c(-c3nonc3N)nc3ccccc32)cc1[N+](=O)[O-]` [Example 68]: the IC50 was in the range of 0.1 to 1 µM with MRC5; 0.1 to 1 µM in the assay on HeLa; 0.01 to 0.1 µM with Jily; 0.1 to 1 µM in the assay on HT1080; 0.01 to 0.1 µM in the assay on Jurkat. The “Hoechst 33342 nuclear staining score” value is 0 in assay [1] (H460, conc 0.01 μm); 0 in assay [1] (H460, conc 0.1 μm); 2 (score 2 relating to strong activity comprising more than 70% of the cells) in assay [1] (H460, conc 1 μm); 0 in assay [1] (HeLa, conc 0.01 μm); 0 in assay [1] (HeLa, conc 0.1 μm); 2 (score 2 relating to strong activity comprising more than 70% of the cells) in assay [1] (HeLa, conc 1 μm). The “Hoechst 33342 nuclear staining score” value in assay [1] (Jily, conc 0.01 μm) is 0; in assay [1] (Jily, conc 0.1 μm) it was 1 (1 relating to weak activity comprising less than 70% of the cells); in assay [1] (Jily, conc 1 μm), 1 (1 relating to weak activity comprising less than 70% of the cells); in assay [1] (Jurkat, conc 0.01 μm), 0; in assay [1] (Jurkat, conc 0.1 μm) it was 2 (score 2 relating to strong activity comprising more than 70% of the cells); in assay [1] (Jurkat, conc 1 μm), 2 (score 2 relating to strong activity comprising more than 70% of the cells). The “Hoechst 33342 nuclear staining score” value is 0 in assay [1] (MRC5, conc 0.01 μm); 0 in assay [1] (MRC5, conc 0.1 μm); 1 (1 relating to weak activity comprising less than 70% of the cells) in assay [1] (MRC5, conc 1 μm); 0 in assay [1] (PBLs, conc 0.01 μm); 0 in assay [1] (PBLs, conc 0.1 μm); 0 in assay [1] (PBLs, conc 1 μm).

(Values after USRE42890E1, “Furazanobenzimidazoles” (Basilea Pharmaceutica AG, priority 2003, dated 2011).)
